Measured values from US8969053B2, “Mutant YqhD enzyme for the production of a biochemical by fermentation” (Metabolic Explorer, priority 2009, dated 2015).
Substitutions are numbered along the chain they refer to.

Legend:
[1] = molecular target: T1, E. coli YqhD variant YqhD*(G149S A286T) (Escherichia coli, UniProt Q46856, A286T/G149S); experiment: inhibition by NADP+, YqhD*(G149S A286T); type: biochemical
T1 construct: made in house; host or cells: E. coli MG1655 ΔyqhD::Km carrying pTRC99A-yqhD*(G149S)(A286T)
T1 sequence (Q46856 1-387 G149S/A286T): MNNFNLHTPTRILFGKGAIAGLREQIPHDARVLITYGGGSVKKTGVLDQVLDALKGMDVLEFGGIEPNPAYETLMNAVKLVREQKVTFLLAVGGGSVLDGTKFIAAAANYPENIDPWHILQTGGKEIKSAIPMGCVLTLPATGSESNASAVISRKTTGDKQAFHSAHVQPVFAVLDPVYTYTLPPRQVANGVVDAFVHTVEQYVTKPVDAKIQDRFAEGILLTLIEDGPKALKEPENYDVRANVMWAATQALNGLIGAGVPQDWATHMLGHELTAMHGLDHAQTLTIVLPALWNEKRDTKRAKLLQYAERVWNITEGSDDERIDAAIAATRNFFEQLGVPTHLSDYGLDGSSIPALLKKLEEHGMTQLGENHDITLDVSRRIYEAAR
Experimental: (§1) Methylglyoxal reductase activity was assayed by measuring the initial rate of NADPH oxidation with a spectrophotometer at a wavelength of 340 nm and at a constant temperature of 37° C. The reaction mixture using methylglyoxal as substrate was carried out in 20 mM Hepes pH 7.5, 0.1 mM Zinc sulphate, 0.2 mM NADPH, 0.6 μg of purified enzyme in a final volume of 1 ml. The reaction mixture was incubated for 5 min at 37° C. and then the reaction was initiated by the addition of the substrate methylglyoxal at a final concentration of 10 mM. Control assay (blank), lacking the substrate was run in parallel and the value measured for the control was subtracted to the value measured for the assay to take into account non-specific oxidation of NADPH.
(§2) The NADP+ inhibition constant for three purified enzymes (yqhD, yqhD*(G149E) and yqhD*(G149S A286T)) were determined in the conditions described for the activity assay, excepted for the concentration of methylglyoxal that was increased to 20 mM. […] Five concentrations of the inhibitor NADP+ were used (0-0.05-0.1-0.2-0.5 mM) and the kinetics were recorded for each condition of inhibition. The NADP+ inhibition constant (Ki) of each protein was determined with the module enzyme kinetic from the software Sigma Plot (Systat Software Inc, San Jose, Calif.). […]

[2] = molecular target: T2, Escherichia coli MG1655 YqhD, native (wild type), SEQ ID NO: 56 (Escherichia coli, UniProt Q46856); experiment: inhibition by NADP+, native YqhD; type: biochemical, E. coli
T2 construct: made in house; host or cells: E. coli MG1655 ΔyqhD::Km carrying pTRC99A-yqhD
T2 sequence (Q46856 1-387): T1 sequence (Q46856 1-387 G149S/A286T) with S149G, T286A
Experimental: as §1, §2

[3] = molecular target: T3, E. coli YqhD variant YqhD*(G149E) (Escherichia coli, UniProt Q46856, G149E); experiment: inhibition by NADP+, YqhD*(G149E); type: biochemical
T3 construct: made in house; host or cells: E. coli MG1655 ΔyqhD::Km carrying pTRC99A-yqhD*(G149E)
T3 sequence (Q46856 1-387 G149E): T1 sequence (Q46856 1-387 G149S/A286T) with S149E, T286A
Experimental: as §1, §2

`NC(=O)c1ccc[n+]([C@@H]2O[C@H](COP(=O)([O-])OP(=O)(O)OC[C@H]3O[C@@H](n4cnc5c(N)ncnc54)[C@H](OP(=O)(O)O)[C@@H]3O)[C@@H](O)[C@H]2O)c1` [NADP+] was tested, and the Ki [1] was 16 ± 2.5 µM, the Ki [2] was 68 µM and the Ki [3] was 28 ± 5 µM.
